Reference: patent publication US6866833B1, “Substituted thiourea complexing agent and a method for extracting a noble metal from a matrix using the complexing agent” (University College Cork, priority 1999, dated 2005)

Tests used:
[1] = Supercritical fluid extraction of Au(III) as AuCl4^− from filter paper, gold determined by atomic absorption spectroscopy; settings: observed after Au(III) SFE runs, 20 mg ligand
Experimental: Gold Au(III) extraction by the ligand of the comparative Example (a) was investigated employing a BDH Gold (III) standard containing 1000 ppm Au(III) (aqueous AuCl4^−). Thus 60 μl of solution Au(III) containing 3.05×10^−7 moles Au(III) was applied to a 3 cm diameter filter paper. The filter paper was allowed to dry and then placed in a glass tube (2 cm×0.5 cm i.d.), plugged with glass wool at both ends. 20 mg of ligand of the comparative Example (a) (in excess of over 200 fold over Au(III) level) was then placed in the same glass tube and plugged with glass wool.
The extraction vessel was statically extracted for 20 minutes and then dynamically extracted into a collecting solvent of 4 ml methanol for 15 minutes (0.8 ml CO2/minute flow rate). The methanol solution was then made up to 10 ml using additional methanol. Levels of gold in solution were then determined by atomic absorption spectroscopy. The procedure was carried out at different pressures from 200-400 atm. The following extraction percentages were obtained:
The procedure in Example 5(a) was repeated except the temperature of the extraction procedure was varied from 60-120° C., while maintaining the pressure of the extractor at 400 atm. The following results were obtained:
The procedure in Example 6 was repeated with the ligand from Example 1 being used in place of the ligand of the Comparative Example (a). The following % extraction values were obtained at differing pressures for extraction of Au(III):
The procedure of Example 7 was repeated employing the ligand of Example 2 in place of the ligand of Example 1 and utilising 50 μl Au(III) standard solution in place of 60 μl to give the following % extraction results at differing pressures of SF—CO2 at 60° C.

[2] = Solubility of the ligand in supercritical CO2 (weight loss of glass tube after static SFE); assay type: physicochemical; settings: 60° C.; for Solubility in SF—CO2: approx. 60 mg ligand, 2.2 ml 100% SF—CO2, static 30 minutes, 200 and 300 atmospheres
Experimental: The solubility of the ligand of the comparative Examples (a)-(c) in supercritical CO2 was compared with the solubilities of the ligands of Examples 1 and 2 and 3 in supercritical CO2.
In each case, a weighed amount of the ligand of the respective comparative Example of approximately 60 mg was placed in a glass tube (2 cm×0.5 cm i.d.) and plugged with glass wool at both ends. The glass tube was placed inside the extraction vessel and statically extracted for 30 minutes. The inlet valve for SF—CO2 was then closed and the outlet valve opened into a collecting solution. The loss of weight of the glass tube after SFE corresponded to the solubility of the ligand in 2.2 ml 100% SF—CO2. The procedure was carried out at 60° C. and two different pressures namely 200 and 300 atmospheres.

Row | SMILES | Solubility in SF—CO2 (ligand remaining in glass tube after extraction runs) [1] | Solubility in SF—CO2 [2] | solubility at 30 min ([2]; supercritical CO2, organic solvent or mixture, thermodynamic from solid, larger amounts of ligand, both pressures (200 and 300 atmospheres), read-out: Solubility in SF—CO2)
1 | NC(=S)Nc1cc(C(F)(F)F)cc(C(F)(F)F)c1 [Comparative Example (a)] | poor solubility | – | –
2 | CCCCCCCCNC(=S)NC [Comparative Example (b), N-methyl,N′-octyl thiourea] | poor solubility | – | –
3 | CCCCCCCCCCCCNC(=S)NC [Comparative Example (c), N-methyl, N′-dodecyl thiourea] | poor solubility | – | –
4 | FC(F)(F)c1cc(NC(=S)NCC(F)(F)C(F)(F)C(F)(F)F)cc(C(F)(F)F)c1 [Example 1] | – | excellent solubility | –
5 | FC(F)(F)CNC(=S)Nc1cc(C(F)(F)F)cc(C(F)(F)F)c1 [Example 2] | – | excellent solubility | –
6 | FC(F)(F)c1cc(NC(=S)NCC(F)(F)C(F)(F)C(F)(F)C(F)(F)C(F)(F)C(F)(F)C(F)(F)F)cc(C(F)(F)F)c1 [Example 3(a)] | – | excellent solubility | –
7 | CNC(=S)NCC(F)(F)C(F)(F)C(F)(F)F [Example 3(b), N-methyl, N′-heptafluorobutyl thiourea] | – | excellent solubility | > 700 mM
